Experimental data as given in a melting point compilation (Tetko et al.; mined from patent text by program, amines drawn as free bases though some values may be those of a salt).

Compound | melting point [°C]
Fc1ccc(CNc2nc(OCC(F)(F)F)nc(Oc3cccc(C(F)(F)F)c3)n2)cc1 | 107 to 109
CCN(CC)C(=O)c1cc(C(C)(C)C)ccc1-c1ccc(OC)cc1 | 89 to 92
CCOC(=O)c1cn2c(cc(OC(C)C)c3ccc(OC)cc32)n1 | 117 to 118
CC(C)Oc1nccc(-c2c(-c3ccc(F)cc3)ncn2C2CCNCC2)n1 | 121 to 122
Cc1oc(-c2cccs2)nc1CC#N | 185
Clc1ccc2c(c1)C(c1ccccc1Cl)OCc1nnc(Br)n1-2 (stereo not given) | 167 to 168
CN(C)c1ccc(C=Cc2ccc(S(C)(=O)=O)cc2)cc1 | 242 to 243
COc1ccc(C2=NN(C3CCN(CC(N)=O)CC3)C(=O)CC2)cc1OC | 180 to 182
CNC(=O)C1(C)NCCc2c1n(F)c1ccccc21 (stereo not given) | 238
O=[N+]([O-])c1c(Br)nn(CC(O)CO)c1NCc1ccccc1 (stereo not given) | 90.1
O=C(NC1CC1)C1CC(=O)N(Cc2ccccc2)C1 (stereo not given) | 94 to 96
CC(C)(CO)Oc1ccc(COc2ccc(Cl)cc2)cc1 | 67 to 70
CC(C)(C)COc1ccc(NC(=O)c2cnn(CC(F)(F)F)c2)cc1C#N | 159 to 160
CCC(=S)NC[C@H]1CN(c2ccc(N3CCN(C(=O)COc4ccc(CN5CCOCC5)cc4)CC3)c(F)c2)C(=O)O1 | 159 to 160
Cc1cc(C(=O)NCc2cccc([N+](=O)[O-])c2)c(OCC(=O)O)cc1F | 177 to 179
CC(C)c1nc(CCCl)n(C)c1Sc1cc(Cl)cc(Cl)c1 | 101 to 102
COc1ccc(N(CCN2CCC(C(=O)c3ccc(F)cc3)CC2)C(=O)c2ccc(N)cc2)c(OC)c1 | 135 to 138
CCSC(C)C(=O)N(CC)c1c[nH]nc1Cl (stereo not given) | 78 to 80
COc1cc(OCc2cccnc2)ccc1/C=C/c1cc(/C=C/c2ccc3[nH]ccc3c2)n[nH]1 | 127 to 135
Cc1ccccc1NC1=CCC(C)n2c1ncc(C(=O)O)c2=O (stereo not given) | 157 to 159
Cc1c(C2CCN(Cc3ccc(Cl)cc3)CC2)n[nH]c1-c1ccccc1 | 192 to 193
CCCCCCCCCCCC(=O)Oc1c(C(=O)c2ccc(Cl)cc2Cl)c(C)nn1C | 56
CC(C)(C)CC(NC(=O)c1ccc(C(F)(F)F)cc1)NC(=NS(=O)(=O)C(F)(F)F)Nc1cccnc1 (stereo not given) | 192 to 193
Cc1ccc(S(=O)(=O)n2cc3c(c2)SC(=C2SC(SCCc4ccc([N+](=O)[O-])cc4)=C(SCCc4ccc([N+](=O)[O-])cc4)S2)S3)cc1 | 143 to 144
Cn1ncc2c(C(F)(F)F)cc(Cl)nc21 | 123

Compound | melting point [°C]
Cc1cc(Nc2cnc(C(=O)N(C)CCO)c(Nc3ccc(Cl)cc3)n2)n[nH]1 | 191 to 192
NC(=O)N1CCCN(NC(=O)c2cc(=O)c(O)c[nH]2)C1=O | 215 to 220
CC(C)c1cn(C)cc(-c2cccc(C(F)(F)F)c2)c1=O | 98.5 to 99.5
O=C(Nc1ccc(OCCN2CCOCC2)c2ccccc12)c1cccc(Br)c1 | 90 to 93
COC(=O)NC1=NCC(c2cccc3ccccc23)N1C (stereo not given) | 187 to 190
O=S1(=O)c2cccc3cccc(c23)N1CCCCN1CC=C(c2c[nH]c3ccccc23)CC1 | 203
CCOC(=O)c1nnc(S)n1Cc1ccc(OC)cc1 | 142 to 144
CCOCc1nc2c(N)nc3cc(-c4cncc(CO)c4)ccc3c2n1CC(C)(C)O | 188 to 190
COc1cccc(Nc2ncc3cc(-c4c(Cl)cccc4Cl)c(=O)n(C)c3n2)c1 | 203 to 204
Nc1ncccc1C(=O)NCC1CCN(C[C@H]2COc3ccc(Br)cc3O2)CC1 | 158 to 160
Cc1nc(CCCCn2cnc3c2c(=O)n(C)c(=O)n3C)no1 | 131 to 132
O=C(Nc1ccc(F)cc1)c1ccc(C2COC(c3c(F)cccc3F)=N2)cc1 (stereo not given) | 210 to 212
COC(=O)c1ccc(OCCNC(=O)C2Cc3ccccc3N2S(=O)(=O)c2ccc(-c3cccc(C(F)(F)F)c3)cc2)c(C)c1 (stereo not given) | 68 to 74
O=C(Nc1ccc(Br)c2ccccc12)c1cc(F)cc(N2CCOCC2)c1 | 187 to 189
CSc1nc(-c2cccnc2)n(-c2ccc(C)c(C)c2)c(=O)c1C#N | > 250
N=C(NCc1ccc(Cl)cc1)Nc1cccc(C(F)(F)F)c1 | 103 to 105
C=CCNc1nc(NCC(F)(F)F)nc2ccc([N+](=O)[O-])cc12 | 221 to 222
c1ccc(Nc2nnn[nH]2)cc1 | 208 to 209
CC(=CC(=O)NCc1cccc(CNC(=O)C=C(C)C(=O)O)c1)C(=O)O | 148 to 150
ON=C1C2CCC1CN(Cc1ccccc1)C2 | 92 to 95
CC(=O)NC(COCc1cc(C)cc(C)c1)Cc1cccc2ccccc12 (stereo not given) | 119 to 120
COc1cc(OC)nc(C2(O)OC(=O)c3c(-c4ccco4)ccnc32)n1 (stereo not given) | 198 to 204
CNS(=O)(=O)c1cc(C(=O)OC)cc(N2CCCC2)c1Oc1ccccc1 | 138 to 139
CC/C=C/C(=O)NC(=O)OC(C)(C)C | 78 to 79
CC(C)(C)C1=NN(c2ccc(C(=O)O)cc2)C(c2ccc([N+](=O)[O-])cc2)C1 (stereo not given) | 245

Compound | melting point [°C]
COC(=O)CCC1CCCCCCCCCCC1=O (stereo not given) | 33 to 35
O=C(O)COc1c(Br)cc(C(=O)c2c(CCc3ccccc3)oc3ccccc23)cc1Br | 163 to 164
O=C1OC(P(=O)(O)c2ccccc2)c2ccccc21 (stereo not given) | 230 to 233
CC(C)NCC#CC(O)c1ccccc1-c1ccccc1 (stereo not given) | 116 to 119
COC(=O)CCC(=O)OCC(C)(C)Oc1ccc2c(c1)CCc1c-2ccc2c1CCC2(C)C | 58 to 60
O=C(O)c1c(O)cccc1-n1cccn1 | 175 to 179
Fc1ccc(CSc2nnc(-c3ccc4c(c3)CCO4)o2)cc1C(F)(F)F | 94 to 95
O=C(NCNC(=O)c1ccccc1C(=O)C1CCCCC1)OCc1ccccc1 | 152 to 155
NCc1ccc2c(c1)N(C1CCN(CCc3ccc(F)cc3)CC1)CC2 | 83 to 85
CC(Nc1ccc2[nH]c(=O)oc2c1)C(=O)N1CCC(Cc2ccccc2)CC1 (stereo not given) | 91
O=[N+]([O-])c1ccc2c(c1)C=Cc1ccc(Br)cc1S2 | 190 to 192
CNC(=O)c1c(C(F)(F)F)nc(C(F)F)c(C(=O)OC)c1NC(C)C | 128 to 130
CCOC(=O)C(=O)/C=C/c1ccc(OCCc2nc(-c3ccccc3)oc2C)cc1 | 99 to 100
COP(=O)(Cc1c(Cl)c(Cl)c(CP(=O)(OC)OC)c(Cl)c1Cl)OC | 179 to 181
CNC(=C[N+](=O)[O-])NCc1ccc(Cl)nc1Cl | 211 to 213
Oc1ccccc1-c1nc(-c2ccc(-c3ccccc3)cc2)nc(-c2ccc3ccccc3c2)n1 | 227 to 239
NC(=O)c1nc(-c2ccc3nc[nH]c3c2)nc2c1[nH]c(=O)n2-c1ccccc1F | 278
COc1ccc2ccccc2c1CCl | 122 to 123
O=C1CN(c2ccccc2)C1=O | 115 to 117
O=C(OCCO)c1ccc(Cl)c([N+](=O)[O-])c1 | 102 to 104
CN(C)CCOC(=O)c1cc2cccc(O)c2[nH]1 | 149 to 152
Cc1noc(NS(=O)(=O)c2cccc(-c3ccccc3)c2)c1Cl | 84 to 86
Cc1nc2nc(C(F)(F)F)cc(-c3cccnc3)n2n1 | 195 to 197
COc1ccccc1C(=O)CN1CCC(=O)C(C(c2ccc(F)cc2)c2ccc(F)cc2)C1 (stereo not given) | 148 to 149
CCOc1nccc(Cl)c1NC(=O)OC(C)(C)C | 73 to 74

Compound | melting point [°C]
O=C(O)c1sc2ccc(Br)cc2c1-c1ccccc1 | 265 to 266
COC(=O)c1cc(NC(C)=O)cc(NC(C)=O)c1 | 220 to 221
Cc1cc(C(N)=O)ncc1C(c1c(F)ccc(F)c1F)S(=O)(=O)c1ccc(C(F)(F)F)nc1 (stereo not given) | 237 to 238
ClCc1ccc2oc(-c3cccs3)nc2c1 | 152 to 153
COc1ccc(C(=O)Nc2ccc(C(C)=O)cc2)cc1 | 222 to 223
CNC(=O)[C@@H](NC(=O)[C@@H](CC(=O)O)n1ccc(-c2ccc(C#N)cc2)c1)C(C)(C)C | 138 to 140
Cc1ccc(S(=O)(=O)N2CCN(C(=O)c3cc4cc(O)ccc4cc3O)CC2)cc1 | 135 to 137
CC(=O)Nc1ncc(S(=O)(=O)NCC(O)(Cn2cncn2)c2ccc(Cl)cc2Cl)s1 (stereo not given) | 96 to 112
CCC12CCC3C4=C(CCC3C1CCC2=O)CC(OC)=CC4 (stereo not given) | 126 to 143
Cc1oc(-c2ccccc2)nc1COc1cccc(CN(O)C(=O)N(C)O)c1 | 62 to 64
CCCCCS(=O)(=O)NC(=O)CCc1ccc(OCCOC)cc1Oc1ncc(Cl)cc1Cl | 92.2 to 93.6
COc1cc(NC(=O)OCCCN2CCN(c3ccc(Cl)cc3)CC2)cc(OC)c1OC | 174
CON=CC(C)(C#N)NC(=O)C(Oc1ccc2ncc(Br)cc2c1)SC (stereo not given) | 138 to 145
O=C(O)c1c(C=C2CC2)c2ccccc2n1Cc1cccc(C(F)(F)F)c1 | 148 to 150
NCCc1ccc(CCC(=O)O)cc1 | 270 to 272
Nc1ncccc1-c1nc2cc(-c3ccc(C(=O)O)o3)cnc2n1-c1ccc(CNC(=O)c2ccccc2)cc1 | 211 to 217
CCOC(=O)N[C@@H]1CC=C[C@@H]2CNC[C@H]21 (racemic) | 120 to 122
COc1cccc(-n2nc(C(=O)O)c3csc(N)c3c2=O)c1 | 227 to 229
O=Cc1cc(Oc2c(Cl)cc(C(F)(F)F)cc2Cl)ccc1[N+](=O)[O-] | 115
COC(=O)C(C#N)CC(=S)c1ccc(C)cc1 (stereo not given) | 88 to 90
O=C1c2ccccc2C(=O)c2c(NCC(O)CCl)ccc(NCC(O)CCl)c21 (stereo not given) | 167 to 169
CCOc1n[nH]c(=O)n1C | 126
COc1ccc(C(=O)c2ccc(OCc3ccccc3)nc2)c(OC(C)(C)C(=O)OC(C)(C)C)c1 | 58 to 60
Cc1cc(N2CCN(c3ccccc3)CC2)c(C#N)c(Cl)n1 | 139 to 140
CN1CCC(C2Oc3cc(F)ccc3Cn3cccc32)CC1 (stereo not given) | 115 to 120
